Data as given in PubChem BioAssay AID1648 (Sanford-Burnham Center for Chemical Genomics, 2009).
Active and inactive are the calls of the source. How the calls were made is not given here.

target: Serine/threonine-protein kinase mTOR (Homo sapiens) (UniProt P42345); assay: binders of mTOR FRB domain, biophysical, NMR (AID 1648); conditions: NMR binding to FRB domain, chemical shift
Sequence (P42345 2015-2114): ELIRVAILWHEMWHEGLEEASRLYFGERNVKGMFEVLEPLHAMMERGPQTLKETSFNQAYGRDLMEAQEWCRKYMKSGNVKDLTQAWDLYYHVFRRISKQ

Structure (SMILES)	Kd
Cc1ccn(S(=O)(=O)c2ccc(F)cc2)n1	> 4 mM (inactive)
Oc1ccccc1-c1nnco1	> 4 mM (inactive)
CC[C@]12CCCN3CCc4c(n(c5ccccc45)[C@](O)(C(=O)OC)C1)[C@@H]32	> 4 mM (inactive)
CN1CCCC1C(=O)O (centres undefined)	> 4 mM (inactive)
O=C(NCc1ccco1)c1cccc(F)c1	> 4 mM (inactive)
Nc1nnc(C(F)(F)F)s1	> 4 mM (inactive)
Cc1cc(C)nc(Nc2n[nH]c(Cc3ccccc3)n2)n1	> 4 mM (inactive)
CN(C)S(=O)(=O)N1CCc2ccccc21	> 4 mM (inactive)
Cc1nc2ccccc2c2c1C(=O)N(C)C2=O	> 4 mM (inactive)
Cc1ccc(-n2nnnc2SCC(N)=O)c(C)c1	> 4 mM (inactive)
C(=C\c1ccccc1)/C=N/n1cnnc1	> 4 mM (inactive)
Oc1cc2c(cc1O)C1c3ccc(O)c(O)c3OCC1(O)C2 (centres undefined)	> 4 mM (inactive)
O=C1CCCN1C(=O)CN1CCOCC1	> 4 mM (inactive)
Cc1cc(=O)[nH]c(N2CCN(Cc3ccccc3)CC2)n1	> 4 mM (inactive)
O=c1[nH]cc(S(=O)(=O)Nc2ccccc2)c(=O)[nH]1	> 4 mM (inactive)
O=c1ccc2cc(O[C@@H]3O[C@H](CO)[C@@H](O)[C@H](O)[C@H]3O)c(O)cc2o1	> 4 mM (inactive)
Cc1cc(=O)n2[nH]c(N)nc2n1	> 4 mM (inactive)
S=c1nc(Cc2ccccc2)[nH][nH]1	> 4 mM (inactive)
COc1ccccc1-c1cn[nH]c(=S)n1	> 4 mM (inactive)
Cc1cc(C(=O)Nc2sc3c(c2C#N)CCC3)no1	> 4 mM (inactive)
CC(C)CCCC(C)C1CCC2C3=CC[C@H]4C[C@@H](O)CC[C@]4(C)C3CC[C@@]21C (some centres undefined)	> 4 mM (inactive)
Nc1ccccc1C(=O)N1CCOCC1	> 4 mM (inactive)
NC(=O)C1CCCN1S(=O)(=O)c1ccc(F)cc1 (centres undefined)	> 4 mM (inactive)

Structure (SMILES)	Kd
Cc1noc(C)c1C(=O)N1CCC(Cc2ccccc2)CC1	> 4 mM (inactive)
Cc1cccnc1NC1=NCC(C)S1 (centres undefined)	> 4 mM (inactive)
NC(=S)NC(=O)CN1C(=O)c2ccccc2C1=O	> 4 mM (inactive)
O=c1[nH]c(O)c(C=NC2CC2)c(=O)[nH]1	> 4 mM (inactive)
NC(=O)c1ccccc1NC(=O)C1CC1	> 4 mM (inactive)
CC(=O)Nc1ccc(-c2nc(C)c(C(C)=O)n2O)cc1	> 4 mM (inactive)
CC(C)(C)CC(=O)NNC(=O)c1cnccn1	> 4 mM (inactive)
CCOC(=O)c1cnc2n(c1=O)CCS2	> 4 mM (inactive)
NS(=O)(=O)c1ccc(NC(=O)C2CC2)cc1	> 4 mM (inactive)
CC(=O)C1CC[C@H]2C3CC[C@H]4C[C@H](O)CC[C@]4(C)C3CC[C@]12C (some centres undefined)	> 4 mM (inactive)
O=C(Nc1ccccc1)N1CCOCC1	> 4 mM (inactive)
NC(Cn1ccc(=O)c(O)c1)C(=O)O (centres undefined)	> 4 mM (inactive)
Nc1cc(=O)[nH]c(SCC(=O)Nc2nccs2)n1	> 4 mM (inactive)
CC(C)=CCc1c2c(c3occ(-c4ccc(O)cc4)c(=O)c3c1O)C=CC(C)(C)O2	> 4 mM (inactive)
C=C1CCC2[C@](C)(CO)[C@H](O)CC[C@@]2(C)[C@@H]1C/C=C1/C(=O)OC[C@H]1O (some centres undefined)	> 4 mM (inactive)
O=C(NC(=O)N1CCOCC1)c1ccccc1	> 4 mM (inactive)
O=C(O)C1Cc2ccccc2N1 (centres undefined)	> 4 mM (inactive)
Cc1cc(C(F)(F)F)nn1CC(N)=O	> 4 mM (inactive)
Cn1nc(C(=O)N2CCOCC2)c2ccccc2c1=O	> 4 mM (inactive)
O=C1CCC(c2cccs2)=NN1	> 4 mM (inactive)
Cc1cc(C(=O)Nc2sc(C)c(C)c2C#N)c(C)o1	> 4 mM (inactive)
NC(=O)Cn1cnc2c(cnn2-c2ccccc2)c1=O	> 4 mM (inactive)
NC(=O)CSc1nc2ccccc2o1	> 4 mM (inactive)

Structure (SMILES)	Kd
O=C(O)c1csc2ccccc12	> 4 mM (inactive)
CN(C)CCCN1CNC(=S)NC1	> 4 mM (inactive)
Cc1ccc(/C=N/NC(N)=O)o1	> 4 mM (inactive)
COc1ccc(-c2c(O)c3c(OC)c4c(cc3oc2=O)OC(C)(C)CC4)cc1	> 4 mM (inactive)
COC(=O)Cc1csc(N)n1	> 4 mM (inactive)
CC(O)c1ccc(C(C)O)cc1 (centres undefined)	> 4 mM (inactive)
CC(C)(C(N)=O)/[N+]([O-])=C\c1ccccc1	> 4 mM (inactive)
NC1=NC(=O)/C(=C\c2cccc(C(=O)O)c2)S1	> 4 mM (inactive)
CC(C)c1ccc2c(c1)CCC1C(C)(C(N)=O)CCCC21C (centres undefined)	> 4 mM (inactive)
CC(=O)c1c(O)cc(C)n(Cc2ccccc2)c1=O	> 4 mM (inactive)
O=C1N=c2ccccc2=C1c1sc(=S)[nH]c1O	> 4 mM (inactive)
CC(=O)c1c(O)c(C)c(O)c2c1OC1=CC(=O)C(C(C)=O)C(=O)C12C (centres undefined)	> 4 mM (inactive)
O=C1NCC(=O)N2CCc3ccccc3C12 (centres undefined)	> 4 mM (inactive)
C[C@@H]1CC[C@@]2(OC1)OC1C(O)C3C4CC[C@H]5C[C@H](O[C@@H]6O[C@H](CO)[C@H](O[C@@H]7O[C@H](CO)[C@@H](O)[C@H](O[C@@H]8OC[C@@H](O)[C@H](O)[C@H]8O)[C@H]7O[C@@H]7O[C@H](CO)[C@H](O)[C@H](O[C@@H]8O[C@H](CO)[C@@H](O)[C@H](O)[C@H]8O)[C@H]7O)[C@H](O)[C@H]6O)[C@H](O)C[C@]5(C)C4CC[C@]3(C)C1[C@@H]2C (some centres undefined)	> 4 mM (inactive)
COc1c2occc2c(OC)c2c(=O)cc(C)oc12	> 4 mM (inactive)
O=C1CS/C(=N/S(=O)(=O)c2ccccc2)N1	> 4 mM (inactive)
NS(=O)(=O)c1ccc(NC(=S)NC2CC2)cc1	> 4 mM (inactive)
C=Cc1c(C)c2cc3[nH]c(cc4nc(cc5nc(cc1[nH]2)C(C)=C5CCC(=O)O)C(CCC(=O)O)=C4C)c(C)c3C=C	> 4 mM (inactive)
CC1(C)CCC(C)(C)c2cc(C(=O)O)ccc21	> 4 mM (inactive)
Cc1cccc(NC(=O)Nc2cc(C)on2)c1	> 4 mM (inactive)
CSc1nn(-c2ccccc2)c(N)c1C#N	> 4 mM (inactive)
Cc1cc(=O)cc(C)n1NC(N)=S	> 4 mM (inactive)
S=C(c1cccnc1)N1CCOCC1	> 4 mM (inactive)

Structure (SMILES)	Kd
Cc1ccc(OCC(=O)n2cnnc2N)c(C)c1	> 4 mM (inactive)
NC(=O)c1ccccc1NC(=O)C1CCCO1 (centres undefined)	> 4 mM (inactive)
Cc1ccc(C2NS(=O)(=O)N=C2N)cc1 (centres undefined)	> 4 mM (inactive)
CC(C)=CCc1c(O)cc(C)oc1=O	> 4 mM (inactive)
CN1CCN(C(=S)NC(=O)c2ccn(C)n2)CC1	> 4 mM (inactive)
CC(=O)O[C@@H]1CC2C(C)(C)C(=O)C=C[C@]2(C)C2CC[C@]3(C)C(=CC(=O)O[C@H]3c3ccoc3)[C@@]21C (some centres undefined)	> 4 mM (inactive)
Nc1ccc2c(c1)C(=O)OC2	> 4 mM (inactive)
Nc1ccc2[nH]ncc2c1	> 4 mM (inactive)
Nc1nc(N)nc(N2C(=O)c3ccccc3C2=O)n1	> 4 mM (inactive)
Cc1cc(C)n(C2CCS(=O)(=O)C2)n1 (centres undefined)	> 4 mM (inactive)
Cc1nnc(Nc2cccnc2)[nH]c1=O	> 4 mM (inactive)
COc1ccccc1CNc1nc2nc(C)cc(=O)n2[nH]1	> 4 mM (inactive)
CN1CCC(N2CCOCC2)CC1	> 4 mM (inactive)
CC1NC(C(=O)O)Cc2c1[nH]c1ccccc21 (centres undefined)	> 4 mM (inactive)
Nc1cccc(S(=O)(=O)N2CCOCC2)c1	> 4 mM (inactive)
Cn1c(SCc2ccon2)nc2ccccc2c1=O	> 4 mM (inactive)
Cc1ccc(CNc2ccc(O)cc2)cc1	> 4 mM (inactive)
COCc1cc(C)nc2sc(C(=O)OC)c(N)c12	> 4 mM (inactive)
NC(CCC(=O)Nc1ccc([N+](=O)[O-])cc1)C(=O)O (centres undefined)	> 4 mM (inactive)
CCN1CCN(CCCNc2ncnc3nc[nH]c23)CC1	> 4 mM (inactive)
NCc1cccc2c1OCCO2	> 4 mM (inactive)
COc1ccc(-c2oc3cc(O[C@H]4O[C@H](CO)[C@@H](O)[C@H](O)[C@H]4O)c(OC)c(O)c3c(=O)c2OC)cc1O	> 4 mM (inactive)
CC12CCC3C(CC3(C)C)C(C)(CCC1=O)O2 (centres undefined)	> 4 mM (inactive)

Structure (SMILES)	Kd
NCC(N)C(=O)c1ccccc1 (centres undefined)	> 4 mM (inactive)
CCc1ccc(/C=N/n2cnnc2)cc1	> 4 mM (inactive)
Cc1nn(CC(=O)Nc2ccccc2)c(=O)c2ccccc12	> 4 mM (inactive)
COC(=O)Cc1cc(=O)n(-c2nc3ccccc3s2)[nH]1	> 4 mM (inactive)
CCc1cc2c(SCC(=O)O)ncnc2s1	> 4 mM (inactive)
O=S1(=O)CCC(NC(=S)Nc2ccc(O)cc2)C1 (centres undefined)	> 4 mM (inactive)
O=C(O)c1ccc2snnc2c1	> 4 mM (inactive)
CC(C)=CCc1c(O)cc2oc(C)cc(=O)c2c1O	> 4 mM (inactive)
C=C1C2CC[C@@]3(C)[C@H](c4ccoc4)OC(=O)C[C@]13O[C@H]1CC(=O)C(C)(C)C(CC(=O)OC)C21C (some centres undefined)	> 4 mM (inactive)
COc1ccc(/C=C2/N=C(N)SC2=O)cc1	> 4 mM (inactive)
O=C(O)CN1C(=O)c2ccc(C(=O)O)cc2C1=O	> 4 mM (inactive)
CN1C(=O)c2ccc(N=C3NC(=O)CS3)cc2C1=O	> 4 mM (inactive)
Cc1nc(-c2ccccc2)ncc1C(=O)O	> 4 mM (inactive)
c1cc2n(c1)CCNC2c1ccncc1 (centres undefined)	> 4 mM (inactive)
OCc1ccc2nonc2c1	> 4 mM (inactive)
O=C(/C=C/c1ccccc1)NC1CCS(=O)(=O)C1 (centres undefined)	> 4 mM (inactive)
Cc1cc(C(=O)N2CCOCC2)c(C)o1	> 4 mM (inactive)
Cn1c(O)c(/C=C2\C=CC=N2)c(=O)[nH]c1=O	> 4 mM (inactive)
Cn1c(=O)c2cn3ncccc3c2n(C)c1=O	> 4 mM (inactive)
COC1CC(O[C@H]2CC[C@]3(C=O)C4CC[C@]5(C)C(C6=CC(=O)OC6)CC[C@]5(O)C4CC[C@]3(O)C2)OC(C)C1O (some centres undefined)	> 4 mM (inactive)
NC(=O)Cc1nc(-c2ccccc2)cs1	> 4 mM (inactive)
COc1cc2cc[n+]3cc4c(OC)c(OC)ccc4cc3c2cc1OC	> 4 mM (inactive)
